Among the data in article PMC3706558 (Biochemistry, 2013) are Ki and Km values, retold here.

The Ki is the dissociation constant of the complex between target and ligand, obtained from inhibition or displacement. Lower therefore signals tighter binding. As a reminder, the Km is the substrate concentration at which the rate is half of its maximum.

The target in series [1] is T1, Mtb ICDH-1 (Mycobacterium tuberculosis, UniProt P9WKL1). As to the kind of experiment: biochemical.
In series [2] the target is T1, Mtb ICDH-1. As to the kind of experiment: NADPH formation at […] nm, dead-end inhibition. Format: biochemical.
Series [3] relates to NC(=O)c1ccc[n+]([C@@H]2O[C@H](COP(=O)(O)OP(=O)(O)OC[C@H]3O[C@@H](n4cnc5c(N)ncnc54)[C@H](OP(=O)(O)O)[C@@H]3O)[C@@H](O)[C@H]2O)c1. As to the kind of experiment: purified protein. The following applies: pH 7.5.

T1 sequence (P9WKL1 whole entry): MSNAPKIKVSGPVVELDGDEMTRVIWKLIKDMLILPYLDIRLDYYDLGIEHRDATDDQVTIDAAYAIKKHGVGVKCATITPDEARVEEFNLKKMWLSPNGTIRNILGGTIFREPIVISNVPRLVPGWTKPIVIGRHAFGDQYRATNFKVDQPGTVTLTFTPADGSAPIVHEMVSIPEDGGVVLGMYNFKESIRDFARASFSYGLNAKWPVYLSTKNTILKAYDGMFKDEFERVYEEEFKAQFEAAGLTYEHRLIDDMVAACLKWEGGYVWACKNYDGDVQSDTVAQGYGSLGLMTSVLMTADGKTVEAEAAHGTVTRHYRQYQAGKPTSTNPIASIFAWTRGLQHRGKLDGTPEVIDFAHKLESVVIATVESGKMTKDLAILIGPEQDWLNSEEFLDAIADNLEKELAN

`NC(=O)C1=CN([C@@H]2O[C@H](COP(=O)(O)OP(=O)(O)OC[C@H]3O[C@@H](n4cnc5c(N)ncnc54)[C@H](OP(=O)(O)O)[C@@H]3O)[C@@H](O)[C@H]2O)C=CC1` [NADPH] yielded a Ki on Mtb ICDH-1 [1] of 0.006 ± 0.002 mM.

On to `O=C(O)C[C@H](O)C(=O)O` [malate], for which the affinity on Mtb ICDH-1 [2] corresponds to a Ki of 80 ± 15 mM. In turn, `O=C(O)CCC(=O)C(=O)O` [αKG] had a Ki on Mtb ICDH-1 [1] of 22 ± 6 mM. As to “Mtb ICDH-1 (Mycobacterium tuberculosis H37Rv)”, in series [3], the Km came to 15 ± 3 µM.
